Experimental data: patent publication US10440947B2, “Aqueous solution for preserving an organ and uses during hypothermic ischemia” (UNIVERSITE CLAUDE BERNARD LYON I, priority 2013, dated 2019)

Tests used:
[1] = test system: rat primary cardiomyocytes; test: MTT viability of rat primary cardiomyocytes after cold ischemia-reperfusion; type: cell-based
Method: (§1) MTT, or […] (Sigma), is a molecule that bonds to mitochondrial dehydrogenases (DH) in the presence of oxidized nicotimamide adenine dinucleotide and nicotimamide adenine dinucleotide phosphate (NAD+ and NADP+) coenzymes to form insoluble formazan crystals of violet color. The resulting violet color is evidence of mitochrondrial function and thus of cell viability. The crystals were dissolved in a permeabilization solution (dimethyl sulfoxide or DMSO, Sigma). This solubilization of formazan also gives rise to cell lysis. The plates were read by spectrophotometry (Multiskan Ex, Thermo, Electron Corporation®) at 550 nanometers (nm).
(§2) The purpose of this protocol was to determine the potentially protective effect of cyclosporin and/or taxol on cardiomyocytes placed in a cold ischemia situation at 4° C. for 24 hours (h), followed by reperfusion for 24 h, at the end of which the viability test (the MTT test) was performed. A “sham” group was not subjected to the ischemia—reperfusion sequence. At each of the doses tested, four different experiments were performed, and during each experiment, eight different cell wells were tested simultaneously.
(§3) Statistical analysis consisted in comparing means (Student's test between the group under study and the control group).

[2] = test system: isolated whole rat heart; test: Myocardial necrosis (size of infarctus, TTC dye) of isolated rat heart after cold ischemia-reperfusion; details: 1 μM in Celsior solution, 8 h cold ischemia at 4° C. then reperfusion
Method: The rats were anesthetized by intraperitoneal injection of sodium pentobarbital (50 milligrams per kilogram (mg/kg)). They were then placed in dorsal decubitus. After isolating the femoral vein, heparin was administered intravenously (200 IU/kg). An abdominal incision was made, followed by a thoracic incision. The sternum was pulled towards the rat's head, using a clamp, and the diaphragm was dissected. The heart isolated from its pericardium was excised and stopped in the hypothermic Celsior solution. […] The hearts were then placed at 4° C. in the same solution for 8 h (the cold ischemia stage), prior to reperfusion (the reanimation stage). After 8 h of cold ischemia, each heart was fastened by its aorta to a cannula for continuous retrograde perfusion using Krebs Henseleit (KH, having the following composition in mM: glucose 11.0; NaCl 118.5: KCl 4.75; MgSO4 1.19, KH2PO4 1.2; NaHCO3 24.0; CaCl2 1.4). A constant pressure of 100 centimeters (cm) of H2O (corresponding to 74 millimeters of mercury (mmHg)) was imposed. […] For each slice, the ratio AN/AR was expressed as a percentage, representing the size of the infarctus. The sum of the infarctuses in all of the sections belonging to the same left ventricle gave the quantity of necrosis for the heart in question. […] At the end of cold ischemia, the hearts were reperfused and the size of infarctus was analyzed histologically after using TTC dye.

[3] = test system: H9c2 cardiomyocytes; test: MTT viability of H9c2 cardiomyocytes after cold ischemia-reperfusion; type: cell-based, rat
Method: This was a conventional model for culturing rat cardiomyocytes. The H9c2 cardiac cells (ATTC®) came from rat heart ventricles transfected with a pSV3 plasmid containing the SV40 gene. The cells were cultivated in high glucose Dulbecco's modified Eagle's medium (DMEM) (PAA®), with an additional 10% of Mycoplex FBS (PAA®) and 1% penicillin-streptomycin. The medium was changed every two days and re-seeding was performed at 70%-80% confluence.
as §1, §2, §3
The viability of primary cardiomyocytes was evaluated after 24 h of cold ischemia and 24 h of reperfusion.
As before, the viability of H9c2 cardiomyocytes was evaluated after 24 h cold ischemia and 24 h reperfusion.

[4] = test system: isolated whole rat heart; test: Functional recovery (LVDevP×HR) of perfused isolated rat heart (Langendorff mode) after cold ischemia-reperfusion; details: 1 μM in Celsior solution; 8 h cold ischemia at 4° C. + 1 h reperfusion at 37° C.; p<0.01
Method: The rats were anesthetized by intraperitoneal injection of sodium pentobarbital (50 milligrams per kilogram (mg/kg)). They were then placed in dorsal decubitus. After isolating the femoral vein, heparin was administered intravenously (200 IU/kg). An abdominal incision was made, followed by a thoracic incision. The sternum was pulled towards the rat's head, using a clamp, and the diaphragm was dissected. The heart isolated from its pericardium was excised and stopped in the hypothermic Celsior solution. […] The hearts were then placed at 4° C. in the same solution for 8 h (the cold ischemia stage), prior to reperfusion (the reanimation stage).
After 8 h of cold ischemia, each heart was fastened by its aorta to a cannula for continuous retrograde perfusion using Krebs Henseleit (KH, having the following composition in mM: glucose 11.0; NaCl 118.5: KCl 4.75; MgSO4 1.19, KH2PO4 1.2; NaHCO3 24.0; CaCl2 1.4). A constant pressure of 100 centimeters (cm) of H2O (corresponding to 74 millimeters of mercury (mmHg)) was imposed. The KH solution was bubbled continuously with 95% O2+5% CO2, in order to maintain its pH at 7.4.
A latex balloon was installed in the left ventricle and connected to a pressure sensor previously calibrated by internal calibration (0 to 200 mmHg). At the beginning of reperfusion, the balloon was inflated in order to obtain a telediastolic pressure of about 5 mmHg. […]

[5] = 1 μM, 5 μM and 10 μM in MM, 24 h cold ischemia + 24 h reperfusion
[6] = tested 0.25-10 μM in St. Thomas basal solution, 24 h cold ischemia + 24 h reperfusion

SMILES: CC(=O)O[C@H]1C(=O)[C@@]2(C)[C@H]([C@H](OC(=O)c3ccccc3)[C@]3(O)C[C@H](OC(=O)[C@H](O)[C@@H](NC(=O)c4ccccc4)c4ccccc4)C(C)=C1C3(C)C)[C@]1(OC(C)=O)CO[C@@H]1C[C@@H]2O [taxol, paclitaxel]
- cardioprotective effect when added singly to LYPS, relative to "MM" reference group [1, 5]: adds nothing in terms of cardioprotective effect
- cardiomyocyte viability increased (MTT) relative to control group ([1]; agent at optimum concentration around 1 μM in St. Thomas basal solution, 24 h cold ischemia at 4° C. + 24 h reperfusion, p<0.01): about 25%
- optimum concentration for increasing cardiomyocyte viability [1, 6]: around 1 μM
- size of infarctus (AN/AR), % of the zone at risk [2]: 8.7%
- cardioprotective effect when added singly to LYPS, relative to "MM" reference group [3, 5]: adds nothing in terms of cardioprotective effect
- cardiomyocyte viability increased (MTT) relative to control group ([3]; agent at optimum concentration around 1 μM in St. Thomas basal solution, 24 h cold ischemia at 4° C. + 24 h reperfusion, p<0.001): about 90%
- optimum concentration for increasing cardiomyocyte viability [3, 6]: around 1 μM
- improvement in LVDevP×HR compared with the control group [4]: 25%
